Data: publication PMC4708007 (Bioscience Reports, 2015)
Like-named read-outs stand apart in the source and are kept apart here.

Key:
EcRelA = biological target: T1, EcRelA (Escherichia coli, UniProt P0AG20); type: biochemical
T1 construct: gene relA

[1] = biological target: Francisella tularensis RelA (Francisella tularensis subspecies tularensis SCHU S4); assay: SEC

T1 sequence (P0AG20 whole entry): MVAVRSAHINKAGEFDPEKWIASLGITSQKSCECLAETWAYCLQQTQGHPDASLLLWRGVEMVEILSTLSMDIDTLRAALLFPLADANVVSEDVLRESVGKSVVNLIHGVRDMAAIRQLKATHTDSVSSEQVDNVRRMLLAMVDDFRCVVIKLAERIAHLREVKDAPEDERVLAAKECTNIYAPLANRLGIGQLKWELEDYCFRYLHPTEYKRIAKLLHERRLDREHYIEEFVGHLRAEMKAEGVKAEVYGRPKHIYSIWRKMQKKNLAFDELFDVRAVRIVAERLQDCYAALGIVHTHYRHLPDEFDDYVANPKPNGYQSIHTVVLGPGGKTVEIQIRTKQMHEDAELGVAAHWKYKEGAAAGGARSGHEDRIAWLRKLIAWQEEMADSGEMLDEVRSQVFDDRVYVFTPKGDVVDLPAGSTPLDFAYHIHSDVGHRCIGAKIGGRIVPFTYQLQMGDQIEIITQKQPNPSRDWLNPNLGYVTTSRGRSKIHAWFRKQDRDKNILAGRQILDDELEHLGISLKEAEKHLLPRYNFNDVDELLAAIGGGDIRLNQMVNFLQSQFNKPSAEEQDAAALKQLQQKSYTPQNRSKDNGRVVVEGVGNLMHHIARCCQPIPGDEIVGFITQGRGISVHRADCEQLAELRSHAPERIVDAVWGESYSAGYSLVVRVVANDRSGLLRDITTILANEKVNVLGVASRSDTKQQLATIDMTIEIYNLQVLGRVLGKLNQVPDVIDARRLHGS

## Nc1nc2c(ncn2[C@@H]2O[C@H](COP(=O)(O)OP(=O)(O)OP(=O)(O)O)[C@@H](O)[C@H]2O)c(=O)[nH]1 [GTP]
EcRelA
  IP RP HPLC end-point assay of AMP formation: Both EcRelA and FtRelA demonstrated basal levels of activity in the absence of stalled ribosomes

## Francisella tularensis RelA (enzyme)
[1]
  stoichiometry N: 2

## Nc1ncnc2c1ncn2[C@@H]1O[C@H](COP(=O)(O)OP(=O)(O)OP(=O)(O)O)[C@@H](O)[C@H]1O [ATP]
EcRelA; 2 mM ATP and 2 mM GTP, 0.5 μM RelA, with or without stalled ribosomal complexes, 15 mM MgCl2, pH 8.0, 30°C
  IP RP HPLC end-point assay of AMP formation: Both EcRelA and FtRelA demonstrated basal levels of activity in the absence of stalled ribosomes
